# Experiments:
# Assay type in all cases: in vivo
# velvetleaf [1] = experiment: Herbicidal activity test against upland field weeds (foliar treatment test); details: Abutilon theophrasti, scale 0-100, read-out: Foliar treatment herbicidal activity, velvet leaf; for pest or weed control at 75 g/ha: 75 g ai/ha
# Outline: (§1)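 Weeds were raised from seed or rootstocks in horticultural soil in a greenhouse (30±5° C., 14/10 h light/dark), then foliage was hand-sprayed with compound at 50 or 75 g a.i./ha in 50% acetone with 0.1% Tween-20. Control was scored visually 0–100 against untreated plants after 14 days, or 21 if needed.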
# black nightshade [2] = experiment: Herbicidal activity test against upland field weeds (soil treatment test); set-up: key to Soil treatment herbicidal activity, black nightshade: 0 (no control); 100 (complete control); details: scale 0 (no control) to 100 (complete control)
# Outline: (§2)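 Pre-emergence test: seeds or rootstocks were sown in fertilized sandy loam, and the next day the soil surface was sprayed with compound at 50 or 75 g a.i./ha in 50% acetone/0.1% Tween-20. Plants were grown in a greenhouse (30±5 °C, 14/10 h light/dark), then visually scored 0–100 against untreated at 14 d (21 d if needed).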
# fall panicum [3] = experiment: Herbicidal activity test against upland field weeds (foliar treatment test); details: Panicum dichotomiflorum, scale 0-100; for pest or weed control at 75 g/ha: 75 g ai/ha
# Outline: as §1
# crabgrass [4] = experiment: Herbicidal activity test against upland field weeds (soil treatment test); set-up: key to Soil treatment herbicidal activity, Crabgrass: 0 (no control); 100 (complete control); details: scale 0 (no control) to 100 (complete control)
# Outline: as §2
# quack grass [5] = experiment: as above; set-up: key to Soil treatment herbicidal activity, quack grass: 0 (no control); 100 (complete control); details: scale 0 (no control) to 100 (complete control)
# Outline: as §2
# sorghum [6] = experiment: Herbicidal activity test against upland field weeds (foliar treatment test); set-up: key to Foliar treatment herbicidal activity, Sorghum: 0 (no control); 100 (complete control); details: scale 0-100; for plant injury at 75 g/ha: Sorghum, 75 g ai/ha
# Outline: as §1
# indian jointvetch [7] = experiment: as above; details: scale 0-100; for pest or weed control at 75 g/ha: 75 g ai/ha
# Outline: as §1
# bindweed [8] = experiment: Herbicidal activity test against upland field weeds (soil treatment test); set-up: key to Soil treatment herbicidal activity, Bindweed: 0 (no control); 100 (complete control); details: scale 0 (no control) to 100 (complete control)
# Outline: as §2
# indian jointvetch [9] = experiment: as above; set-up: key to Soil treatment herbicidal activity, Indian jointvetch: 0 (no control); 100 (complete control); details: scale 0 (no control) to 100 (complete control)
# Outline: as §2
# bindweed [10] = experiment: Herbicidal activity test against upland field weeds (foliar treatment test); set-up: key to Foliar treatment herbicidal activity, Bindweed: 0 (no control); 100 (complete control); details: scale 0-100; for pest or weed control at 75 g/ha: 75 g ai/ha
# Outline: as §1
# barnyard grass [11] = experiment: as above; details: Echinochloa crus-galli, scale 0-100; for pest or weed control at 75 g/ha: 75 g ai/ha
# Outline: as §1
# fall panicum [12] = experiment: Herbicidal activity test against upland field weeds (soil treatment test); details: Panicum dichotomiflorum, scale 0 (no control) to 100 (complete control); for pest or weed control at 75 g/ha: 75 g ai/ha
# Outline: as §2
# quack grass [13] = experiment: Herbicidal activity test against upland field weeds (foliar treatment test); set-up: key to Foliar treatment herbicidal activity, quack grass: 0 (no control); 100 (complete control); details: scale 0-100
# Outline: as §1
# velvetleaf [14] = experiment: Herbicidal activity test against upland field weeds (soil treatment test); set-up: key to Soil treatment herbicidal activity, velvet leaf: 0 (no control); 100 (complete control); details: scale 0 (no control) to 100 (complete control)
# Outline: as §2
# cocklebur [15] = experiment: Herbicidal activity test against upland field weeds (foliar treatment test); details: Xanthium strumarium, scale 0-100; for pest or weed control at 75 g/ha: 75 g ai/ha
# Outline: as §1
# black nightshade [16] = experiment: as above; set-up: key to Foliar treatment herbicidal activity, black nightshade: 0 (no control); 100 (complete control); details: scale 0-100; for pest or weed control at 75 g/ha: Solanum nigrum, 75 g ai/ha
# Outline: as §1
# sorghum [17] = experiment: Herbicidal activity test against upland field weeds (soil treatment test); set-up: key to Soil treatment herbicidal activity, Sorghum: 0 (no control); 100 (complete control); details: scale 0 (no control) to 100 (complete control)
# Outline: as §2
# crabgrass [18] = experiment: Herbicidal activity test against upland field weeds (foliar treatment test); details: Digitaria sanguinalis, scale 0-100; for pest or weed control at 75 g/ha: 75 g ai/ha
# Outline: as §1
# cocklebur [19] = experiment: Herbicidal activity test against upland field weeds (soil treatment test); set-up: key to Soil treatment herbicidal activity, Cocklebur: 0 (no control); 100 (complete control); details: scale 0 (no control) to 100 (complete control)
# Outline: as §2
# barnyard grass [20] = experiment: as above; set-up: key to Soil treatment herbicidal activity, barnyard grass: 0 (no control); 100 (complete control); details: scale 0 (no control) to 100 (complete control)
# Outline: as §2
smiles,measurement,setting,value
"CCON(Cc1nnn(C)n1)c1nc(C(F)(F)F)ccc1C(=O)Nc1nnnn1C [Compound No. 2-31, 2-(ethoxy((2-methyl-2H-tetrazol-5-yl)methyl)amino)-N-(1-methyl-1H-tetrazol-5-yl)-6-(trifluoromethyl)nicotinamide]",pest or weed control at 50 g/ha,velvetleaf [1]; 50 g ai/ha,70%
same,"Soil treatment herbicidal activity, black nightshade",black nightshade [2]; 50 g ai/ha,100
same,pest or weed control at 50 g/ha,fall panicum [3]; 50 g ai/ha,40%
same,pest or weed control at 50 g/ha,"crabgrass [4]; Digitaria sanguinalis, 50 g ai/ha",98%
same,"Soil treatment herbicidal activity, quack grass",quack grass [5]; 50 g ai/ha,0
same,"Foliar treatment herbicidal activity, Sorghum",sorghum [6]; 50 g ai/ha,0
same,pest or weed control at 50 g/ha,indian jointvetch [7]; 50 g ai/ha,40%
same,"Soil treatment herbicidal activity, Bindweed",bindweed [8]; 50 g ai/ha,0
same,pest or weed control at 50 g/ha,indian jointvetch [9]; 50 g ai/ha,98%
same,"Foliar treatment herbicidal activity, Bindweed",bindweed [10]; 50 g ai/ha,0
same,pest or weed control at 50 g/ha,barnyard grass [11]; 50 g ai/ha,90%
same,pest or weed control at 50 g/ha,fall panicum [12]; 50 g ai/ha,95%
same,"Foliar treatment herbicidal activity, quack grass",quack grass [13]; 50 g ai/ha,0
same,"Soil treatment herbicidal activity, velvet leaf",velvetleaf [14]; 50 g ai/ha,100
same,pest or weed control at 50 g/ha,cocklebur [15]; 50 g ai/ha,70%
same,"Foliar treatment herbicidal activity, black nightshade",black nightshade [16]; 50 g ai/ha,100
same,"Soil treatment herbicidal activity, Sorghum",sorghum [17]; 50 g ai/ha,0
same,pest or weed control at 50 g/ha,crabgrass [18]; 50 g ai/ha,60%
same,pest or weed control at 50 g/ha,"cocklebur [19]; Xanthium strumarium, 50 g ai/ha",30%
same,"Soil treatment herbicidal activity, barnyard grass",barnyard grass [20]; 50 g ai/ha,100
"CN(CCOCc1nnn(C)n1)c1nc(C(F)(F)F)ccc1C(=O)Nc1nnnn1C [Compound No. 2-34, 2-(methyl(2-((2-methyl-2H-tetrazol-5-yl)methoxy)ethyl)amino)-N-(1-methyl-1H-tetrazol-5-yl)-6-(trifluoromethyl)nicotinamide]",pest or weed control at 75 g/ha,velvetleaf [1],50%
same,pest or weed control at 75 g/ha,"black nightshade [2]; Solanum nigrum, 75 g ai/ha",95%
same,pest or weed control at 75 g/ha,fall panicum [3],40%
same,pest or weed control at 75 g/ha,"crabgrass [4]; Digitaria sanguinalis, 75 g ai/ha",70%
same,"Soil treatment herbicidal activity, quack grass",quack grass [5]; 75 g ai/ha,0
same,plant injury at 75 g/ha,sorghum [6],20%
same,pest or weed control at 75 g/ha,indian jointvetch [7],60%
same,"Soil treatment herbicidal activity, Bindweed",bindweed [8]; 75 g ai/ha,0
same,pest or weed control at 75 g/ha,indian jointvetch [9]; 75 g ai/ha,70%
same,pest or weed control at 75 g/ha,bindweed [10],50%
same,pest or weed control at 75 g/ha,barnyard grass [11],70%
same,pest or weed control at 75 g/ha,fall panicum [12],80%
same,"Foliar treatment herbicidal activity, quack grass",quack grass [13]; 75 g ai/ha,0
same,pest or weed control at 75 g/ha,"velvetleaf [14]; Abutilon theophrasti, 75 g ai/ha, read-out: Soil treatment herbicidal activity, velvet leaf",60%
same,pest or weed control at 75 g/ha,cocklebur [15],40%
same,pest or weed control at 75 g/ha,black nightshade [16],95%
same,"Soil treatment herbicidal activity, Sorghum",sorghum [17]; 75 g ai/ha,0
same,pest or weed control at 75 g/ha,crabgrass [18],60%
same,"Soil treatment herbicidal activity, Cocklebur",cocklebur [19]; 75 g ai/ha,0
same,pest or weed control at 75 g/ha,"barnyard grass [20]; Echinochloa crus-galli, 75 g ai/ha",60%
"CN(CCc1nnn(C)n1)c1nc(C(F)(F)F)ccc1C(=O)Nc1nnnn1C [Compound No. 2-36, 2-(methyl(2-(2-methyl-2H-tetrazol-5-yl)ethyl)amino)-N-(1-methyl-1H-tetrazol-5-yl)-6-(trifluoromethyl)nicotinamide]",pest or weed control at 75 g/ha,velvetleaf [1],50%
same,"Soil treatment herbicidal activity, black nightshade",black nightshade [2]; 75 g ai/ha,100
same,pest or weed control at 75 g/ha,fall panicum [3],50%
same,"Soil treatment herbicidal activity, Crabgrass",crabgrass [4]; 75 g ai/ha,100
same,pest or weed control at 75 g/ha,quack grass [5]; 75 g ai/ha,10%
same,plant injury at 75 g/ha,sorghum [6],20%
same,pest or weed control at 75 g/ha,indian jointvetch [7],60%
same,pest or weed control at 75 g/ha,bindweed [8]; 75 g ai/ha,70%
same,"Soil treatment herbicidal activity, Indian jointvetch",indian jointvetch [9]; 75 g ai/ha,100
same,pest or weed control at 75 g/ha,bindweed [10],70%
same,pest or weed control at 75 g/ha,barnyard grass [11],90%
same,pest or weed control at 75 g/ha,fall panicum [12],98%
same,"Foliar treatment herbicidal activity, quack grass",quack grass [13]; 75 g ai/ha,0
same,"Soil treatment herbicidal activity, velvet leaf",velvetleaf [14]; 75 g ai/ha,100
same,pest or weed control at 75 g/ha,cocklebur [15],70%
same,pest or weed control at 75 g/ha,black nightshade [16],95%
same,plant injury at 75 g/ha,"sorghum [17]; Sorghum, 75 g ai/ha",20%
same,pest or weed control at 75 g/ha,crabgrass [18],60%
same,pest or weed control at 75 g/ha,"cocklebur [19]; Xanthium strumarium, 75 g ai/ha",90%
same,"Soil treatment herbicidal activity, barnyard grass",barnyard grass [20]; 75 g ai/ha,100
